The series can be described thus: activity coefficient (dimensionless); of the first substance listed, at infinite dilution; xn = mol fraction of the nth substance listed. The note with it: 101 kPa, Liquid, Chromatography, x1 = 0.

Numbers after ± are expanded uncertainties.

With `C#CCCCCCC` [1-octyne] + CCCC[n+]1cccc(C)c1.N#C[N-]C#N, the activity coefficient reads like this: (308.15 K) 9.22 ± 0.63; (318.15 K) 9.32 ± 0.64; (328.15 K) 9.42 ± 0.64; (338.15 K) 9.52 ± 0.65; (348.15 K) 9.6 ± 0.65; (358.15 K) 9.68 ± 0.66. Further, the activity coefficient (368.15 K) is 9.75 ± 0.67.
Consider `C1CCCCCCC1` [cyclooctane] + CCCC[n+]1cccc(C)c1.N#C[N-]C#N, for which the activity coefficient worked out at 35.1 ± 2.4 (308.15 K); 32 ± 2.2 (318.15 K); 29.7 ± 2 (328.15 K); 27.8 ± 1.9 (338.15 K); 25.8 ± 1.8 (348.15 K); 24.2 ± 1.7 (358.15 K). Moreover, the activity coefficient (368.15 K) turned out to be 22.7 ± 1.6.
As to `CCCO` [propan-1-ol] + CCCC[n+]1cccc(C)c1.N#C[N-]C#N, the activity coefficient is 0.678 ± 0.046 (338.15 K), 0.663 ± 0.045 (348.15 K), 0.65 ± 0.044 (358.15 K) and 0.638 ± 0.044 (368.15 K).
As for `C1COCCO1` [1,4-dioxane] + CCCC[n+]1cccc(C)c1.N#C[N-]C#N, the activity coefficient was found to be 1.01 ± 0.06 (338.15 K), 1.05 ± 0.07 (348.15 K), 1.08 ± 0.07 (358.15 K) and 1.11 ± 0.07 (368.15 K).
For `CC#N` [acetonitrile] + CCCC[n+]1cccc(C)c1.N#C[N-]C#N, the activity coefficient by setting is: (338.15 K) 0.736 ± 0.049; (348.15 K) 0.748 ± 0.049; (358.15 K) 0.76 ± 0.05; (368.15 K) 0.764 ± 0.05.
With `CCCCCCCCCC` [decane] + CCCC[n+]1cccc(C)c1.N#C[N-]C#N, the activity coefficient (308.15 K) stood at 275 ± 19; the activity coefficient (318.15 K) was determined as 244 ± 17; the activity coefficient (328.15 K) worked out at 219 ± 15; the activity coefficient (338.15 K) is 198 ± 14; the activity coefficient (348.15 K) came out at 179 ± 12; the activity coefficient (358.15 K) was 163 ± 11. For the same molecule, the activity coefficient (368.15 K) came to 149 ± 10.
Consider `C1=CCCCC1` [cyclohexene] + CCCC[n+]1cccc(C)c1.N#C[N-]C#N, for which the activity coefficient was 9.2 ± 0.63 (308.15 K); 8.87 ± 0.61 (318.15 K); 8.55 ± 0.58 (328.15 K); 8.27 ± 0.56 (338.15 K); 7.99 ± 0.54 (348.15 K); 7.76 ± 0.53 (358.15 K). Under “368.15 K”, the activity coefficient amounted to 7.54 ± 0.51.
`C=Cc1ccccc1` [styrene] + CCCC[n+]1cccc(C)c1.N#C[N-]C#N: the activity coefficient by setting is: (328.15 K) 1.39 ± 0.09; (338.15 K) 1.44 ± 0.09; (348.15 K) 1.49 ± 0.1; (358.15 K) 1.54 ± 0.1; (368.15 K) 1.59 ± 0.11.
Regarding `CCCCC(C)=O` [2-hexanone] + CCCC[n+]1cccc(C)c1.N#C[N-]C#N, the activity coefficient by setting is: (328.15 K) 2.44 ± 0.17; (338.15 K) 2.48 ± 0.17; (348.15 K) 2.54 ± 0.17; (358.15 K) 2.59 ± 0.18; (368.15 K) 2.63 ± 0.18.
On to `O=C1CCCCC1` [cyclohexanone] + CCCC[n+]1cccc(C)c1.N#C[N-]C#N, for which the activity coefficient by setting is: (338.15 K) 0.928 ± 0.059; (348.15 K) 0.96 ± 0.06; (358.15 K) 0.988 ± 0.062; (368.15 K) 1.01 ± 0.06.
On to `C=CCCCCCC` [oct-1-ene] + CCCC[n+]1cccc(C)c1.N#C[N-]C#N, for which the activity coefficient runs as follows: (308.15 K) 49.7 ± 3.4; (318.15 K) 46.7 ± 3.2; (328.15 K) 44 ± 3; (338.15 K) 41.8 ± 2.9; (348.15 K) 39.5 ± 2.7; (358.15 K) 37.6 ± 2.6. Also, under “368.15 K”, the activity coefficient was 35.7 ± 2.4.
Take `C#CCCCCC` [1-heptyne] + CCCC[n+]1cccc(C)c1.N#C[N-]C#N: the activity coefficient was found to be 6.16 ± 0.42 (308.15 K); 6.27 ± 0.43 (318.15 K); 6.38 ± 0.43 (328.15 K); 6.48 ± 0.44 (338.15 K); 6.58 ± 0.45 (348.15 K); 6.67 ± 0.45 (358.15 K). Moreover, the activity coefficient (368.15 K) came out at 6.78 ± 0.46.
As to `C=C(C)c1ccccc1` [(1-methylethenyl)benzene] + CCCC[n+]1cccc(C)c1.N#C[N-]C#N, the activity coefficient is, setting by setting: (328.15 K) 2.1 ± 0.14; (338.15 K) 2.21 ± 0.15; (348.15 K) 2.33 ± 0.16; (358.15 K) 2.44 ± 0.17; (368.15 K) 2.55 ± 0.17.
Consider `C#CCCCC` [1-hexyne] + CCCC[n+]1cccc(C)c1.N#C[N-]C#N, for which the activity coefficient by setting is: (308.15 K) 4.13 ± 0.28; (318.15 K) 4.25 ± 0.29; (328.15 K) 4.35 ± 0.3; (338.15 K) 4.45 ± 0.3; (348.15 K) 4.55 ± 0.31; (358.15 K) 4.62 ± 0.31. In addition, the activity coefficient (368.15 K) was determined as 4.72 ± 0.32.
As to `CCCC(=O)CC` [3-hexanone] + CCCC[n+]1cccc(C)c1.N#C[N-]C#N, the activity coefficient (338.15 K) is 2.77 ± 0.19, the activity coefficient (348.15 K) was 2.82 ± 0.19, the activity coefficient (358.15 K) was determined as 2.87 ± 0.2 and the activity coefficient (368.15 K) was determined as 2.89 ± 0.2.
For `Cc1ccc(C)cc1` [1,4-dimethylbenzene] + CCCC[n+]1cccc(C)c1.N#C[N-]C#N, the activity coefficient (328.15 K) came to 2.86 ± 0.19; the activity coefficient (338.15 K) worked out at 2.92 ± 0.2; the activity coefficient (348.15 K) is 3.02 ± 0.21; the activity coefficient (358.15 K) stood at 3.08 ± 0.21; the activity coefficient (368.15 K) came to 3.17 ± 0.22.
`CCOC(C)(C)C` [2-ethoxy-2-methylpropane] + CCCC[n+]1cccc(C)c1.N#C[N-]C#N: the activity coefficient (308.15 K) amounted to 18 ± 1.2; the activity coefficient (318.15 K) amounted to 17.5 ± 1.2; the activity coefficient (328.15 K) stood at 17 ± 1.2; the activity coefficient (338.15 K) was found to be 16.7 ± 1.1; the activity coefficient (348.15 K) amounted to 16.3 ± 1.1; the activity coefficient (358.15 K) worked out at 15.9 ± 1.1. Further, the activity coefficient (368.15 K) turned out to be 15.6 ± 1.1.
For the molecule `C1CCOC1` [tetrahydrofuran] + CCCC[n+]1cccc(C)c1.N#C[N-]C#N, the activity coefficient (308.15 K) stood at 1.38 ± 0.09; the activity coefficient (318.15 K) was determined as 1.4 ± 0.09; the activity coefficient (328.15 K) came out at 1.43 ± 0.09; the activity coefficient (338.15 K) turned out to be 1.45 ± 0.1; the activity coefficient (348.15 K) was determined as 1.47 ± 0.1; the activity coefficient (358.15 K) is 1.5 ± 0.1. The activity coefficient (368.15 K) was found to be 1.53 ± 0.1.
In the case of `CCCC(C)=O` [pentan-2-one] + CCCC[n+]1cccc(C)c1.N#C[N-]C#N, the activity coefficient is, setting by setting: (328.15 K) 1.81 ± 0.12; (338.15 K) 1.84 ± 0.12; (348.15 K) 1.89 ± 0.13; (358.15 K) 1.93 ± 0.13; (368.15 K) 1.96 ± 0.13.
For `C=CCCCCCCCC` [1-decene] + CCCC[n+]1cccc(C)c1.N#C[N-]C#N, the activity coefficient runs as follows: (308.15 K) 109 ± 7; (318.15 K) 101 ± 7; (328.15 K) 93.8 ± 6.4; (338.15 K) 88.4 ± 6.1; (348.15 K) 83.2 ± 5.7; (358.15 K) 78.1 ± 5.4. Also, under “368.15 K”, the activity coefficient was found to be 73.9 ± 5.1.
For the molecule `CC(C)CC(C)(C)C` [2,2,4-trimethylpentane] + CCCC[n+]1cccc(C)c1.N#C[N-]C#N, the activity coefficient is, setting by setting: (308.15 K) 104 ± 7; (318.15 K) 93.3 ± 6.4; (328.15 K) 85.8 ± 5.9; (338.15 K) 78.3 ± 5.4; (348.15 K) 72.6 ± 5; (358.15 K) 67 ± 4.6. For the same molecule, the activity coefficient (368.15 K) came out at 61.7 ± 4.2.
With `CCOCC` [diethyl ether] + CCCC[n+]1cccc(C)c1.N#C[N-]C#N, the activity coefficient runs as follows: (308.15 K) 6.37 ± 0.43; (318.15 K) 6.33 ± 0.43; (328.15 K) 6.29 ± 0.43; (338.15 K) 6.26 ± 0.43; (348.15 K) 6.22 ± 0.42; (358.15 K) 6.19 ± 0.42. Where the note is “368.15 K”, the activity coefficient turned out to be 6.15 ± 0.42.
As to `CCCCCC` [hexane] + CCCC[n+]1cccc(C)c1.N#C[N-]C#N, the activity coefficient was 56.1 ± 3.8 (308.15 K); 51.7 ± 3.5 (318.15 K); 47.8 ± 3.3 (328.15 K); 44.3 ± 3 (338.15 K); 41.3 ± 2.8 (348.15 K); 38.6 ± 2.6 (358.15 K). The activity coefficient (368.15 K) came out at 36 ± 2.5.
Take `c1ccccc1` [benzene] + CCCC[n+]1cccc(C)c1.N#C[N-]C#N: the activity coefficient (328.15 K) stood at 1.37 ± 0.09; the activity coefficient (338.15 K) was found to be 1.4 ± 0.09; the activity coefficient (348.15 K) was 1.43 ± 0.09; the activity coefficient (358.15 K) is 1.47 ± 0.1; the activity coefficient (368.15 K) is 1.5 ± 0.1.
For the molecule `COC(C)(C)C` [2-methoxy-2-methylpropane] + CCCC[n+]1cccc(C)c1.N#C[N-]C#N, the activity coefficient reads like this: (308.15 K) 6.76 ± 0.46; (318.15 K) 6.77 ± 0.46; (328.15 K) 6.78 ± 0.46; (338.15 K) 6.78 ± 0.46; (348.15 K) 6.79 ± 0.46; (358.15 K) 6.8 ± 0.46. The activity coefficient (368.15 K) amounted to 6.8 ± 0.46.
`CCc1ccccc1` [ethylbenzene] + CCCC[n+]1cccc(C)c1.N#C[N-]C#N: the activity coefficient is 3.21 ± 0.22 (328.15 K); 3.26 ± 0.22 (338.15 K); 3.32 ± 0.23 (348.15 K); 3.35 ± 0.23 (358.15 K); 3.41 ± 0.23 (368.15 K).
For `C=CCCCC` [hex-1-ene] + CCCC[n+]1cccc(C)c1.N#C[N-]C#N, the activity coefficient worked out at 22.4 ± 1.5 (308.15 K); 21.4 ± 1.5 (318.15 K); 20.4 ± 1.4 (328.15 K); 19.5 ± 1.3 (338.15 K); 18.7 ± 1.3 (348.15 K); 17.8 ± 1.2 (358.15 K). Also, where the note is “368.15 K”, the activity coefficient was 17.1 ± 1.2.
For `CCC(C)CC` [3-methylpentane] + CCCC[n+]1cccc(C)c1.N#C[N-]C#N, the activity coefficient (308.15 K) came to 50.9 ± 3.5; the activity coefficient (318.15 K) worked out at 47 ± 3.2; the activity coefficient (328.15 K) amounted to 43.1 ± 3; the activity coefficient (338.15 K) worked out at 39.8 ± 2.7; the activity coefficient (348.15 K) amounted to 36.9 ± 2.5; the activity coefficient (358.15 K) turned out to be 34.7 ± 2.4. Also, the activity coefficient (368.15 K) was 32.4 ± 2.2.

The record behind these values is the NIST ThermoML archive (doi:10.1016/j.jct.2013.09.007).
